Results from patent US20100086483A1, “METHOD OF MULTIDETECTOR COMPUTED TOMAGRAPHY” (Gilead Palo Alto, Inc., priority 2008, published 2010).

How the values were obtained:
conscious dogs = assay: Effects of caffeine on regadenoson-induced coronary vasodilation and changes in hemodynamics in conscious dogs (Part II); assay type: in vivo, dog; details: for duration of 2-fold increase in CBF / maximum CBF: time control group, 4 dogs
Method: Sixteen chronically instrumented male mongrel dogs weighing from 22-30 kg were used in the study. The animal protocol was approved by the Institutional Animal Care and Use Committee of New York Medical College and conforms to the Guide for the Care and Use of Laboratory Animal by the United States National Institutes of Health.
Dogs were sedated with acepromazine (0.3 mg/kg, IM) and anesthetized with pentobarbital sodium (25 mg/kg, IV). After intubation, dogs were artificially ventilated with room air. A thoracotomy was made in the fifth intercostal space using sterile techniques. A Tygon catheter (Cardiovascular Instruments, Wakefield, Mass.) was inserted into the descending thoracic aorta and another one was inserted into the left atrium. In 9 dogs, an ultrasound flow transducer (Transonic Systems, Ithaca, N.Y.) was placed around the left circumflex coronary artery. A solid-state pressure gauge (P6.5, Konisberg Instruments, Pasadena, Calif.) was placed into the left ventricle through the apex. The chest was closed in layers. The catheters and wires were tunneled subcutaneously and externalized through the skin at the back of the dog's neck. Dogs were allowed to recover from the surgery before experiments were performed, and were trained to lie on a table.
Phasic arterial pressure was measured by connecting the aortic catheter to a strain gauge transducer (P23 ID, LDS Test and Measurement, Valley View, Ohio). Left ventricular pressures were measured by the solid pressure gauge. CBF (mL/min) was measured from an ultrasound flow transducer using a Transonic flowmeter (T206, Transonic Systems, Ithaca, N.Y.). Two indices were used to describe the regadenoson-induced coronary vasodilation: 1) the maximum increase in CBF and 2) the duration of the 2-fold increase in CBF (the period of time that CBF was elevated to a level ≧2-fold of baseline CBF). All pressure and flow data were acquired and analyzed using a Ponemah System (Version 3.30 or 4.20, LDS Test and Measurement, Valley View, Ohio). MAP and HR were calculated from phasic blood pressure, and LV dP/dtMax was calculated from the left ventricular systolic pressure.
On the day of an experiment, a dog was placed on a table, where it lay quietly during the experiment. A catheter was inserted into a peripheral vein in the leg and attached to an infusion line to administer drugs without disturbing the dog. The experiment was begun after MAP, HR and CBF were stable.
Each dog received an IV injection of 5 μg/kg of regadenoson. […] LVSP, LV dP/dtMax, MAP, HR and CBF were recorded continuously. Blood samples were taken from the left atrial catheter at 1, 3, 5, 15, 30, 45 and 60 min following injections of regadenoson.
In 4 dogs, two doses of regadenoson (5 μg/kg, IV) were given 90 min apart (without blood sampling) to determine if there is tachyphylaxis of regadenoson-induced coronary vasodilation.
The statistical significance of a difference between the value of a parameter at baseline and at the indicated time point after drug administration was determined using a One-Way Repeated Measures ANOVA followed by Tukey's Test. […] Results with p<0.05 were considered to be significant. […] All data are presented as Mean±SEM.

normal subjects = assay: PET myocardial blood flow / coronary flow reserve after regadenoson with and without caffeine, crossover study; assay type: in vivo, human; details: regadenoson 400 μg IV after placebo capsule
Method: 15O water was used as the radionuclide in the PET scans. There was a 1- to 14-day washout period between dosing days. Blood samples and measures of safety were collected until 120 minutes after study drug administration.
The CVT tracking number for the placebo capsules was 1341 (Leg 2).
The primary efficacy measure was the log coronary flow reserve (CFR), which is the ratio of stress MBF after regadenoson dosing to the resting MBF.
The data were also to be analyzed using Wilcoxon's rank-sum test.

[1] = regadenoson 5 μg/kg IV in the presence of caffeine 1 mg/kg
[2] = regadenoson 5 μg/kg IV in the presence of caffeine 2 mg/kg
[3] = regadenoson 5 μg/kg IV in the presence of caffeine 4 mg/kg
[4] = regadenoson 5 μg/kg IV in the presence of caffeine 10 mg/kg
[5] = regadenoson 5 μg/kg IV without caffeine (control of caffeine 1 mg/kg group), 0.5 min
[6] = regadenoson 5 μg/kg IV without caffeine (control of caffeine 1 mg/kg group), 1 min
[7] = regadenoson 5 μg/kg IV without caffeine (control of caffeine 1 mg/kg group), 2 min
[8] = regadenoson 5 μg/kg IV without caffeine (control of caffeine 1 mg/kg group), 3 min
[9] = regadenoson 5 μg/kg IV without caffeine (control of caffeine 1 mg/kg group), 4 min
[10] = regadenoson 5 μg/kg IV without caffeine (control of caffeine 1 mg/kg group), 5 min
[11] = regadenoson 5 μg/kg IV without caffeine (control of caffeine 1 mg/kg group), 10 min
[12] = regadenoson 5 μg/kg IV without caffeine (control of caffeine 1 mg/kg group), 15 min
[13] = regadenoson 5 μg/kg IV without caffeine (control of caffeine 1 mg/kg group), 20 min
[14] = regadenoson 5 μg/kg IV without caffeine (control of caffeine 2 mg/kg group), 0.5 min
[15] = regadenoson 5 μg/kg IV without caffeine (control of caffeine 2 mg/kg group), 1 min
[16] = regadenoson 5 μg/kg IV without caffeine (control of caffeine 2 mg/kg group), 2 min
[17] = regadenoson 5 μg/kg IV without caffeine (control of caffeine 2 mg/kg group), 3 min
[18] = regadenoson 5 μg/kg IV without caffeine (control of caffeine 2 mg/kg group), 4 min
[19] = regadenoson 5 μg/kg IV without caffeine (control of caffeine 2 mg/kg group), 5 min
[20] = regadenoson 5 μg/kg IV without caffeine (control of caffeine 2 mg/kg group), 10 min
[21] = regadenoson 5 μg/kg IV without caffeine (control of caffeine 2 mg/kg group), 15 min
[22] = regadenoson 5 μg/kg IV without caffeine (control of caffeine 2 mg/kg group), 20 min
[23] = regadenoson 5 μg/kg IV without caffeine (control of caffeine 4 mg/kg group), 0.5 min
[24] = regadenoson 5 μg/kg IV without caffeine (control of caffeine 4 mg/kg group), 1 min
[25] = regadenoson 5 μg/kg IV without caffeine (control of caffeine 4 mg/kg group), 2 min
[26] = regadenoson 5 μg/kg IV without caffeine (control of caffeine 4 mg/kg group), 3 min
[27] = regadenoson 5 μg/kg IV without caffeine (control of caffeine 4 mg/kg group), 4 min
[28] = regadenoson 5 μg/kg IV without caffeine (control of caffeine 4 mg/kg group), 5 min
[29] = regadenoson 5 μg/kg IV without caffeine (control of caffeine 4 mg/kg group), 10 min
[30] = regadenoson 5 μg/kg IV without caffeine (control of caffeine 4 mg/kg group), 15 min
[31] = regadenoson 5 μg/kg IV without caffeine (control of caffeine 4 mg/kg group), 20 min
[32] = regadenoson 5 μg/kg IV without caffeine (control of caffeine 10 mg/kg group), 0.5 min
[33] = regadenoson 5 μg/kg IV without caffeine (control of caffeine 10 mg/kg group), 1 min
[34] = regadenoson 5 μg/kg IV without caffeine (control of caffeine 10 mg/kg group), 2 min
[35] = regadenoson 5 μg/kg IV without caffeine (control of caffeine 10 mg/kg group), 3 min
[36] = regadenoson 5 μg/kg IV without caffeine (control of caffeine 10 mg/kg group), 4 min
[37] = regadenoson 5 μg/kg IV without caffeine (control of caffeine 10 mg/kg group), 5 min
[38] = regadenoson 5 μg/kg IV without caffeine (control of caffeine 10 mg/kg group), 10 min
[39] = regadenoson 5 μg/kg IV without caffeine (control of caffeine 10 mg/kg group), 15 min
[40] = regadenoson 5 μg/kg IV without caffeine (control of caffeine 10 mg/kg group), 20 min
[41] = regadenoson 5 μg/kg IV, absence of caffeine, n=8
[42] = regadenoson 5 μg/kg IV, absence of caffeine, n=9
[43] = first injection of regadenoson 5 μg/kg IV
[44] = second injection of regadenoson 5 μg/kg IV 90 min later

## CNC(=O)c1cnn(-c2nc(N)c3ncn([C@@H]4O[C@H](CO)[C@@H](O)[C@H]4O)c3n2)c1 [Regadenoson, (1-{9-[(4S,2R,3R,5R)-3,4-dihydroxy-5-(hydroxymethyl)oxolan-2-yl]-6-aminopurin-2-yl}pyrazol-4-yl)-N-methylcarboxamide]
Conscious dogs; in the presence of 1, 2 and 4 mg/kg caffeine
  time regadenoson-increased CBF remained at ≧2-fold baseline levels: ≥ 3 min
Conscious dogs; [1]
  decrease in LVSP from baseline: 9±3%
  peak decrease in MAP from baseline: 13±2%
Conscious dogs; [2]
  decrease in LVSP from baseline: 6±2%
  peak decrease in MAP from baseline: 13±1%
Conscious dogs; [3]
  decrease in LVSP from control (p>0.05): 1±5%
  peak decrease in MAP from baseline: 2±5%
Conscious dogs; [4]
  increase in LVSP from control: 11±7%
  increase in MAP from baseline (insignificant): 9±6%
Conscious dogs; regadenoson 5 μg/kg IV with caffeine 1 mg/kg
  peak increase in HR from baseline: 124±12%
Conscious dogs; regadenoson 5 μg/kg IV with caffeine 2 mg/kg
  peak increase in HR from baseline: 109±21%
Conscious dogs; regadenoson 5 μg/kg IV with caffeine 4 mg/kg
  peak increase in HR from baseline: 79±20%
Conscious dogs; regadenoson 5 μg/kg IV with caffeine 10 mg/kg
  peak increase in HR from baseline: 74±16%
Conscious dogs; [5]
  HR: 138 ± 10 bpm
  MAP: 97 ± 2 mm Hg
Conscious dogs; [6]
  HR: 144 ± 13 bpm
  MAP: 93 ± 3 mm Hg
Conscious dogs; [7]
  HR: 142 ± 9 bpm
  MAP: 92 ± 4 mm Hg
Conscious dogs; [8]
  HR: 131 ± 9 bpm
  MAP: 92 ± 3 mm Hg
Conscious dogs; [9]
  HR: 125 ± 8 bpm
  MAP: 94 ± 3 mm Hg
Conscious dogs; [10]
  HR: 121 ± 8 bpm
  MAP: 96 ± 3 mm Hg
Conscious dogs; [11]
  HR: 100 ± 7 bpm
  MAP: 97 ± 4 mm Hg
Conscious dogs; [12]
  HR: 94 ± 7 bpm
  MAP: 96 ± 4 mm Hg
Conscious dogs; [13]
  HR: 89 ± 7 bpm
  MAP: 96 ± 3 mm Hg
Conscious dogs; [14]
  HR: 160 ± 13 bpm
  MAP: 89 ± 5 mm Hg
Conscious dogs; [15]
  HR: 145 ± 7 bpm
  MAP: 89 ± 5 mm Hg
Conscious dogs; [16]
  HR: 150 ± 4 bpm
  MAP: 91 ± 5 mm Hg
Conscious dogs; [17]
  HR: 137 ± 5 bpm
  MAP: 91 ± 3 mm Hg
Conscious dogs; [18]
  HR: 127 ± 4 bpm
  MAP: 93 ± 4 mm Hg
Conscious dogs; [19]
  HR: 129 ± 6 bpm
  MAP: 90 ± 3 mm Hg
Conscious dogs; [20]
  HR: 104 ± 5 bpm
  MAP: 91 ± 2 mm Hg
Conscious dogs; [21]
  HR: 104 ± 6 bpm
  MAP: 96 ± 3 mm Hg
Conscious dogs; [22]
  HR: 93 ± 7 bpm
  MAP: 97 ± 3 mm Hg
Conscious dogs; [23]
  HR: 166 ± 18 bpm
  MAP: 107 ± 6 mm Hg
Conscious dogs; [24]
  HR: 163 ± 8 bpm
  MAP: 95 ± 5 mm Hg
Conscious dogs; [25]
  HR: 158 ± 6 bpm
  MAP: 99 ± 4 mm Hg
Conscious dogs; [26]
  HR: 141 ± 4 bpm
  MAP: 98 ± 4 mm Hg
Conscious dogs; [27]
  HR: 131 ± 6 bpm
  MAP: 100 ± 2 mm Hg
Conscious dogs; [28]
  HR: 128 ± 7 bpm
  MAP: 100 ± 2 mm Hg
Conscious dogs; [29]
  HR: 113 ± 5 bpm
  MAP: 100 ± 2 mm Hg
Conscious dogs; [30]
  HR: 102 ± 6 bpm
  MAP: 101 ± 4 mm Hg
Conscious dogs; [31]
  HR: 101 ± 6 bpm
  MAP: 102 ± 4 mm Hg
Conscious dogs; [32]
  HR: 149 ± 15 bpm
  MAP: 93 ± 3 mm Hg
Conscious dogs; [33]
  HR: 144 ± 7 bpm
  MAP: 86 ± 4 mm Hg
Conscious dogs; [34]
  HR: 148 ± 5 bpm
  MAP: 89 ± 4 mm Hg
Conscious dogs; [35]
  HR: 135 ± 4 bpm
  MAP: 89 ± 4 mm Hg
Conscious dogs; [36]
  HR: 130 ± 5 bpm
  MAP: 92 ± 4 mm Hg
Conscious dogs; [37]
  HR: 127 ± 6 bpm
  MAP: 92 ± 4 mm Hg
Conscious dogs; [38]
  HR: 105 ± 4 bpm
  MAP: 95 ± 4 mm Hg
Conscious dogs; [39]
  HR: 98 ± 3 bpm
  MAP: 93 ± 6 mm Hg
Conscious dogs; [40]
  HR: 99 ± 7 bpm
  MAP: 98 ± 5 mm Hg
Conscious dogs; regadenoson 5 μg/kg IV, absence of caffeine
  peak increase in LV dP/dtMax from baseline: 65±7%
Conscious dogs; [41]
  duration of the 2-fold increase in CBF: 515 ± 71 s
  peak CBF: 191 ± 7 mL/min
  peak decrease in LVSP from baseline: 9±1%
Conscious dogs; [42]
  peak decrease in MAP from baseline: 15±2%
  peak increase in HR from baseline: 114±14%
Conscious dogs; [43]
  duration of 2-fold increase in CBF: 401 ± 45 s
  maximum CBF: 178 ± 17 mL/min
Conscious dogs; [44]
  duration of 2-fold increase in CBF: 395 ± 43 s
  maximum CBF: 176 ± 6 mL/min
Conscious dogs; two injections of regadenoson 5 μg/kg IV 90 min apart
  differences in baseline CBF, maximum CBF or duration of 2-fold increase in CBF between two injections (tachyphylaxis): no statistically significant differences
Normal subjects
  CFR (stress/rest): 2.97±0.16
Normal subjects; n=40
  log CFR±SE: 1.03±0.06
